Where no end group is shown, it is not given here.
System: aPL from a pool of 13 Human patients
Experiment: Surface plasmon resonance, aPL flown over biotin-peptide-coated SA chip (BIAcore X100)
Assay type: binding
Protocol: The kinetics and affinity of protein-protein and protein-lipid interactions were determined using a BIAcore X100 instrument. 1 mg/ml of biotin-tagged peptide (ligand) was immobilized using a sensor chip SA (GE Healthcare) surface, whereas aPL from a pool of 13 Human patients were flown as analyte. The first flow cell of the sensor chip was used as a control surface (no protein), whereas the second flow cell was employed as the active surface. A range of dilution of aPL analytes prepared in the same buffer was injected on both flow cell surfaces at a flow rate of 30 μl/min. Association and dissociation times for each protein injection were set at 90 and 120 s, respectively. In all cases, sensorgrams were obtained from three different dilutions of aPL.
The de Groot's research group has pointed at the importance of hydrophobic character of the plate during coating of R39-R43 epitope. In order to abrogate of the plate-dependent aPL binding, the Ia-1 and Ib-1 peptides as well as the R39-R43 with a biotin at their N-terminal were synthetized and coated a streptavidin plate. In this configuration, the different peptides are flag oriented in the space preventing any interaction with the plate. It was thus observed that the flag-type orientation of R39-R43-biot leads to 8.52×more interaction with aPL while they show 9.63×more binding for Ib-1-biot presenting the same position. […] The surface plasmon resonance (SPR) technique is used to determine the relative avidity of aPL for R39-R43-biot and Ib-1-biot. The interaction between aPL and immobilized R39-R43-biot or Ib-1-biot is monitored by flowing various concentrations of aPL over a R39-R43-biot- or Ib-1-biot-coated chip surface (FIG. 1C). Through SPR experiments, it appears that aPL avidity for Ib-1-biot presents a resonance unit (RU) of 51.49 at 1/1,000 of dilution and a RU of 27.61 at 1/10,000 of dilution while, at the same dilution, it present a RU of 27.36 and a RU of 17.99 with R39-R43-biot, respectively (FIG. 1C). However, at higher concentrations, the peptides seems to show no differences in the interactions with aPL. […] Considering that IgG valency, it was decided to generate a dimeric Ib-1-biot peptide (Ib-1-biot-2x). This new polypeptide carries thus two optimized epitopes which have the opportunity to interact with two Fab fragment present on aPL. […] At higher concentration, i.e dilution of 1/100, the avidity for dimeric peptide is 28×more than for the monomeric (FIG. 1D).
It was performed a peptide substitution scan of Ib-1-biot VSRGGMRKKKKPLTG (SEQ ID NO: 6) carrying the optimized epitope Ib-1-biot and based on an exchange of the underlined amino acid positions with the 20 main amino acids. The resulting peptide microarrays contained 140 different peptides. It was observed that the peptide substitution of the position n° 1, 2, 12 and 15 have significant influences on the ability to interact with aPL from patients 1, 2, 3, 4 and, in particular, form the plasma pool. Indeed, the substitution of the position 1, 12 or 15 by an Arginine (R) or a Lysine (K) increases the avidity of the peptide for all aPL from patients. […] In this context, the enhancement relative to Ib-1.0-biot-2x of identified peptides was evaluated (FIG. 2A). […] However, streptavidin being known to produce unspecific binding, it was used the ratio between aPL and a pool of human plasma as control (B/B0) (FIG. 2B, upper panel). This representation therefore allows to distinguish the real levels of interactions. It was then performed a dilution assay from dilution of 1/100 to 1/1,200,000 and it was observed relevant differences between the different identified peptides. By comparison of area under the curve (AUC), it was possible to detect the most prone-interacting peptide with aPL. Thus, the peptide IIa-8.0-biot-2x obtained the higher AUC (FIG. 2B, bottom panel). […]

For “IIa-8.0-biot-2x: dimeric biotinylated IIa-8.0 peptide; also used associated with streptavidin magnetic beads (RSRGGMRKRKKPLTGRSRGGMRKRKKPLTG; also: dimeric peptide (two IIa-8.0 copies), biotinylated, site not given here)”, the “SPR AUC relative to the initial target R39-43” value was > 10 ×, the “avidity of aPL relative to avidity for Ib-1.0-biot-2x” value (all dilutions (FIG. 2C upper panel)) was 1.3 × and the “SPR AUC relative to Ib-1.0-biot-2x” value (dilution 1/100 (FIG. 2C bottom panel)) was 2.3 ×. For the same substance, the “SPR AUC relative to Ib-1.0-biot-2x” value (dilution 1/1,000 (FIG. 2C bottom panel)) was 3.43 ×, the “SPR AUC relative to Ib-1.0-biot-2x” value (dilution 1/10,000 (FIG. 2C bottom panel)) was 10.5 × and the “sustained interaction / stability of binding with aPL (shape of SPR curves)” value (stabilization curves) was “sustained stability of binding is also significantly increased”.

— patent US20240116994A1, “Peptides And Use Thereof For Diagnosing And Treating Antiphospholipid Syndrome” (UNIVERSITE DE GENEVE, priority 2021, published 2024)
